Reference: US20210189342A1, “COMPOSITIONS AND METHODS FOR MODULATING MONOCYTE AND MACROPHAGE INFLAMMATORY PHENOTYPES AND IMMUNOTHERAPY USES THEREOF” (Verseau Therapeutics, Inc., priority 2018, published 2021)

The substances below were run on SELPLG (assay: siRNA dose response, SELPLG mRNA knockdown, bDNA Assay). Settings: THP-1, 24 hr.
Format: cell-based, human
Description: (§1) Dose response curves for siRNAs were generated in vitro using a variety of cell lines according to Table 4.
(§2) Briefly, cells were seeded in 96-well plates and reverse transfected with siRNA, Lipofectamine® 2000 (0.5 uL/well; ThermoFisher), and, in some cases, a reporter plasmid (50 ng/well). The reporter plasmid (psiCHECK™-2, Promega) encoded both firefly luciferase and the gene of interest fused to renilla luciferase; silencing of the gene of interest results in proportional silencing of renilla luciferase but leaves firefly luciferase unaffected as an internal control.
(§3) After 24 hr incubation at 37° C., mRNA knockdown was measured using an endpoint assay. For targets without a reporter plasmid, a branched DNA (bDNA) assay was performed according to the manufacturer's instructions (QuantiGene® Singleplex Gene Expression Assay, ThermoFisher) to measure both the target gene and GAPDH (housekeeping gene) mRNA. Data are plotted as siRNA concentration (nM) vs. remaining mRNA (ratio of target gene to GAPDH, normalized to mock siRNA-transfected cells). For targets with a reporter plasmid, a Dual-Glo® Luciferase Assay was performed according to the manufacturer's instructions (Promega) to measure firefly and renilla luciferase expression. Data are plotted as siRNA concentration (nM) vs. remaining mRNA (ratio of renilla to firefly luminescence, normalized to mock siRNA-transfected cells).
(§4) For all dose response curves, a 4-parameter logistic model was applied to determine the IC50 of each siRNA sequence (Table 5 and FIG. 2). Data shown in Table 5 and FIG. 2 represent the mean of quadruplicates, +/−standard deviation.

Substance	IC50 [nM]
XD-09261: siRNA targeting SELPLG (sense 5'-ccAccGAAuAUGAguAccudTsdT-3'; antisense 5'-AGGuACUcAuAUUCGGUGGdTsdT-3'; as printed in the source, key not given here)	0.386
XD-09262: siRNA targeting SELPLG (sense 5'-ccGAAuAuGAGuAccuAGAdTsdT-3'; antisense 5'-UCuAGGuACUcAuAUUCGGdTsdT-3'; as printed in the source, key not given here)	1.35
XD-09263: siRNA targeting SELPLG (sense 5'-gcAcAGAccAcucaAcccAdTsdT-3'; antisense 5'-UGGGUUGAGUGGUCUGUGCdTsdT-3'; as printed in the source, key not given here)	2.96
XD-09264: siRNA targeting SELPLG (sense 5'-accAAAAGAGGucuGuucAdTsdT-3'; antisense 5'-UGAAcAGACCUCUUUUGGUdTsdT-3'; as printed in the source, key not given here)	1.96
XD-09265: siRNA targeting SELPLG (sense 5'-aaGcAGAcGGGcAaGuGGAdTsdT-3'; antisense 5'-UCcACUUGCCCGUCUGCUUdTsdT-3'; RNA with 2'-O-methyl and phosphorothioate modifications, case key not given here, as printed in the source, key not given here)	0.486
XD-09266: siRNA targeting SELPLG (sense 5'-aguAcuGAAGAGugAcGGAdTsdT-3'; antisense 5'-UCCGUcACUCUUcAGuACUdTsdT-3'; RNA with 2'-O-methyl and phosphorothioate modifications, case key not given here, as printed in the source, key not given here)	0.207
XD-09267: siRNA targeting SELPLG (sense 5'-acuGAAGAGuGAcgGAcuudTsdT-3'; antisense 5'-AAGUCCGUcACUCUUcAGUdTsdT-3'; RNA with 2'-O-methyl and phosphorothioate modifications, case key not given here, as printed in the source, key not given here)	1.07
XD-09268: siRNA targeting SELPLG (sense 5'-ccAAGGGcAGAccuuucuudTsdT-3'; antisense 5'-AAGAAAGGUCUGCCCUUGGdTsdT-3'; RNA with 2'-O-methyl and phosphorothioate modifications, case key not given here, as printed in the source, key not given here)	0.471

Each substance was assayed on TNFAIP8L2 (assay: siRNA dose response, TNFAIP8L2 mRNA knockdown, bDNA Assay). Settings: THP-1, 24 hr.
Format: cell-based, human
Description: as §1, §2, §3, §4

Substance	IC50 [nM]
XD-09760: siRNA targeting TNFAIP8L2 (sense 5'-ggAccAGGccGuGaucucudTsdT-3'; antisense 5'-AGAGAUcACGGCCUGGUCCdTsdT-3'; RNA with 2'-O-methyl and phosphorothioate modifications, case key not given here, as printed in the source, key not given here)	0.058
XD-09761: siRNA targeting TNFAIP8L2 (sense 5'-ggucAGGuGGAGAucucuudTsdT-3'; antisense 5'-AAGAGAUCUCcACCUGACCdTsdT-3'; RNA with 2'-O-methyl and phosphorothioate modifications, case key not given here, as printed in the source, key not given here)	0.701
XD-09762: siRNA targeting TNFAIP8L2 (sense 5'-uuuAAuGuAucGcuAccAAdTsdT-3'; antisense 5'-UUGGuAGCGAuAcAUuAAAdTsdT-3'; as printed in the source, key not given here)	0.226
XD-09764: siRNA targeting TNFAIP8L2 (sense 5'-cguuGcGcuGGAAgGAAuudTsdT-3'; antisense 5'-AAUUCCUUCcAGCGcAACGdTsdT-3'; as printed in the source, key not given here)	2.98
XD-09765: siRNA targeting TNFAIP8L2 (sense 5'-cuGcGcGAGGcGcaAuAcAdTsdT-3'; antisense 5'-UGuAUUGCGCCUCGCGcAGdTsdT-3'; RNA with 2'-O-methyl and phosphorothioate modifications, case key not given here, as printed in the source, key not given here)	0.023
XD-09766: siRNA targeting TNFAIP8L2 (sense 5'-cccucGAuGuAcAuAGcuudTsdT-3'; antisense 5'-AAGCuAUGuAcAUCGAGGGdTsdT-3'; RNA with 2'-O-methyl and phosphorothioate modifications, case key not given here, as printed in the source, key not given here)	0.127
XD-09768: siRNA targeting TNFAIP8L2 (sense 5'-aaAucAAucAuGuuAcAcudTsdT-3'; antisense 5'-AGUGuAAcAUGAUUGAUUUdTsdT-3'; RNA with 2'-O-methyl and phosphorothioate modifications, case key not given here, as printed in the source, key not given here)	0.353
XD-09796: siRNA targeting TNFAIP8L2 (sense 5'-gcAcAuAGcAAGcuGAAcudTsdT-3'; antisense 5'-AGUUcAGCUUGCuAUGUGCdTsdT-3'; RNA with 2'-O-methyl and phosphorothioate modifications, case key not given here, as printed in the source, key not given here)	11.6

The substances below were run on SPI1 (assay: siRNA dose response, SPI1 mRNA knockdown, bDNA Assay). Settings: THP-1, 24 hr.
Format: cell-based, human
Description: as §1, §2, §3, §4

Substance	IC50 [nM]
XD-09780: siRNA targeting SPI1 (sense GGAUCUAUACCAACGCCAATT; antisense UUGGCGUUGGUAUAGAUCCTT; 2'-O-methyl and phosphorothioate modified, lower-case key not given here)	2.66
XD-09781: siRNA targeting SPI1 (sense CGCCAAACGCACGAGUAUUTT; antisense AAUACUCGUGCGUUUGGCGTT; 2'-O-methyl and phosphorothioate modified, lower-case key not given here)	0.455
XD-09783: siRNA targeting SPI1 (sense GCGACAUGAAGGACAGCAUTT; antisense AUGCUGUCCUUCAUGUCGCTT; 2'-O-methyl and phosphorothioate modified, lower-case key not given here)	1.11
XD-09785: siRNA targeting SPI1 (sense GUCUCAAGUCCGUAUGUAATT; antisense UUACAUACGGACUUGAGACTT; 2'-O-methyl and phosphorothioate modified, lower-case key not given here)	0.479
XD-09786: siRNA targeting SPI1 (sense UCUCAAGUCCGUAUGUAAATT; antisense UUUACAUACGGACUUGAGATT; 2'-O-methyl and phosphorothioate modified, lower-case key not given here)	0.25
XD-09787: siRNA targeting SPI1 (sense CCGUAUGUAAAUCAGAUCUTT; antisense AGAUCUGAUUUACAUACGGTT; 2'-O-methyl and phosphorothioate modified, lower-case key not given here)	0.075
XD-09788: siRNA targeting SPI1 (sense 5'-acAAGuAAAGuuAuucucAdTsdT-3'; antisense 5'-UGAGAAuAACUUuACUUGUdTsdT-3'; as printed in the source, key not given here)	1.32
XD-09789: siRNA targeting SPI1 (sense 5'-aaAGuuAuucucAauccAudTsdT-3'; antisense 5'-AUGGAUUGAGAAuAACUUUdTsdT-3'; as printed in the source, key not given here)	0.442

The substances below were run on CD207 (assay: siRNA dose response, CD207 mRNA knockdown, Dual-Glo Luciferase Assay). Settings: Hepal-6 + reporter plasmid, 24 hr.
Format: cell-based, human
Description: as §1, §2, §3, §4

Substance	IC50 [nM]
XD-09240: siRNA targeting CD207 (sense 5'-guGAGcAcucAGGauGAcudTsdT-3'; antisense 5'-AGUcAUCCUGAGUGCUcACdTsdT-3'; as printed in the source, key not given here)	0.678

The substances below were run on TBXAS1 (assay: siRNA dose response, TBXAS1 mRNA knockdown, bDNA Assay). Settings: A549, 24 hr.
Format: cell-based, human
Description: as §1, §2, §3, §4

Substance	IC50 [nM]
XD-10497: siRNA targeting TBXAS1 (sense 5'-ccAuGGGcGuGcAaGAcuudTsdT-3'; antisense 5'-AAGUCUUGcACGCCcAUGGdTsdT-3'; RNA with 2'-O-methyl and phosphorothioate modifications, case key not given here, as printed in the source, key not given here)	0.137
XD-10498: siRNA targeting TBXAS1 (sense 5'-gcGuGcAAGAcuuuGAcAudTsdT-3'; antisense 5'-AUGUcAAAGUCUUGcACGCdTsdT-3'; RNA with 2'-O-methyl and phosphorothioate modifications, case key not given here, as printed in the source, key not given here)	0.273
